In patent publication US10064858B2, “Methods and compositions for treating bacterial infections with iron chelators” (THE UNITED STATES OF AMERICA, AS REPRESENTED BY THE …, priority 2011, dated 2018):

Assays:
[1] = tested on: clinical isolates of A. baumannii; assay: MIC for clinical isolates in RPMI (low iron) media (Table 4); format: cell-based; parameters: key to MIC of Iron Chelators: NG = no growth in table 4; conditions: for MIC: Acinetobacter baumannii
Description: […] […] Tests were performed in triplicate. MIC of iron chelators were determined for noscomial ESKAPE pathogens.
For a number of strains, the iron chelators produced no growth of bacteria (NG).

[2] = tested on: E. coli strain EC35218; assay: Growth (OD600) with chelator, Rifampin or both; format: cell-based; conditions: CAMHB
Description: E. coli strain EC35218 was grown in CAMHB and challenged with 1.5×MIC compound 4 (Var) or 1.5×MIC Triapine (Tri) with or without 0.75×MIC Rifampin (Rif). Growth was estimated by absorbance at 600 nm (y-axis) at 0 or 24 hours.

[3] = tested on: A. baumannii, strain AB5711; assay: Growth curves (OD600) in CAMHB with compound 4; format: cell-based
Text: It should be noted that the inhibition occurred in a dose-responsive manner.

[4] = Stability in aqueous solution; format: physicochemical
[5] = tested on: clinical isolates of A. baumannii; assay: MIC for clinical isolates in CAMHB media (Table 3); format: cell-based; conditions: Acinetobacter baumannii
Description: Individual MICs were determined following the microdilution method recommended by CLSI in cationic-adjusted Mueller-Hinton Broth (CAMHB), or M9 media. […] Tests were performed in triplicate. MIC of iron chelators were determined for noscomial ESKAPE pathogens.

[6] = tested on: A. baumannii strain AB19606; assay: Growth (OD600) with chelator, Rifampin or both; format: cell-based; conditions: CAMHB
Description: A. baumannii strain AB19606 was grown in CAMHB and challenged with 1.5×MIC compound 4 (Var) or 1.5×MIC Triapine (Tri) with or without 0.75×MIC Rifampin (Rif). Growth was estimated by absorbance at 600 nm (y-axis) at 0 or 24 hours.

[7] = AB3638, read-out: MIC of Iron Chelators
[8] = AB3785, read-out: MIC of Iron Chelators
[9] = AB3806, read-out: MIC of Iron Chelators
[10] = AB3917, read-out: MIC of Iron Chelators
[11] = AB4025, read-out: MIC of Iron Chelators
[12] = AB4026, read-out: MIC of Iron Chelators
[13] = AB4027, read-out: MIC of Iron Chelators
[14] = AB4052, read-out: MIC of Iron Chelators
[15] = AB4269, read-out: MIC of Iron Chelators
[16] = AB4448, read-out: MIC of Iron Chelators
[17] = AB4456, read-out: MIC of Iron Chelators
[18] = AB4490, read-out: MIC of Iron Chelators
[19] = AB4498, read-out: MIC of Iron Chelators
[20] = AB4795, read-out: MIC of Iron Chelators
[21] = AB4857, read-out: MIC of Iron Chelators
[22] = AB4878, read-out: MIC of Iron Chelators
[23] = AB4932, read-out: MIC of Iron Chelators
[24] = AB4957, read-out: MIC of Iron Chelators
[25] = AB4991, read-out: MIC of Iron Chelators
[26] = AB5001, read-out: MIC of Iron Chelators
[27] = AB5075, read-out: MIC of Iron Chelators
[28] = AB5197, read-out: MIC of Iron Chelators
[29] = AB5256, read-out: MIC of Iron Chelators
[30] = AB5674, read-out: MIC of Iron Chelators
[31] = AB5711, read-out: MIC of Iron Chelators
[32] = 1.5×MIC chelator in combination with 0.75×MIC Rifampin
[33] = alone: 1.5×MIC chelator or 0.75×MIC Rifampin

MIC of Iron Chelators ([1]; AB967): NG
MIC of Iron Chelators ([1]; AB2828): NG
MIC of Iron Chelators ([1]; AB3340): NG
MIC of Iron Chelators ([1]; AB3560): NG
MIC of Iron Chelators ([1]; AB3927): NG
MIC [1, 7]: 64 µg/mL
MIC [1, 8]: 32 µg/mL
MIC [1, 9]: 32 µg/mL
MIC [1, 10]: 32 µg/mL
MIC [1, 11]: 32 µg/mL
MIC [1, 12]: 32 µg/mL
MIC [1, 13]: 32 µg/mL
MIC [1, 14]: 64 µg/mL
MIC [1, 15]: 32 µg/mL
MIC [1, 16]: 64 µg/mL
MIC [1, 17]: 32 µg/mL
MIC [1, 18]: 32 µg/mL
MIC [1, 19]: 64 µg/mL
MIC [1, 20]: 32 µg/mL
MIC [1, 21]: 64 µg/mL
MIC [1, 22]: 64 µg/mL
MIC [1, 23]: 125 µg/mL
MIC [1, 24]: 125 µg/mL
MIC [1, 25]: 8 µg/mL
MIC [1, 26]: 32 µg/mL
MIC [1, 27]: 64 µg/mL
MIC [1, 28]: 32 µg/mL
MIC [1, 29]: 125 µg/mL
MIC [1, 30]: 32 µg/mL
MIC [1, 31]: 64 µg/mL
stability in aqueous solution [4]: highly stable
MIC ([5]; AB967, read-out: MIC of Iron Chelators): 500 µg/mL
MIC ([5]; AB2828, read-out: MIC of Iron Chelators): 500 µg/mL
MIC ([5]; AB3340, read-out: MIC of Iron Chelators): 500 µg/mL
MIC ([5]; AB3560, read-out: MIC of Iron Chelators): 500 µg/mL
MIC [5, 7]: 500 µg/mL
MIC [5, 8]: 500 µg/mL
MIC [5, 9]: 1000 µg/mL
MIC [5, 10]: 500 µg/mL
MIC ([5]; AB3927, read-out: MIC of Iron Chelators): 500 µg/mL
MIC [5, 11]: 500 µg/mL
MIC [5, 12]: 500 µg/mL
MIC [5, 13]: 500 µg/mL
MIC [5, 14]: 1000 µg/mL
MIC [5, 15]: 500 µg/mL
MIC [5, 16]: 500 µg/mL
MIC [5, 17]: 500 µg/mL
MIC [5, 18]: 500 µg/mL
MIC [5, 19]: 500 µg/mL
MIC [5, 20]: 500 µg/mL
MIC [5, 21]: 500 µg/mL
MIC [5, 22]: 500 µg/mL
MIC [5, 23]: 500 µg/mL
MIC [5, 24]: 500 µg/mL
MIC [5, 25]: 500 µg/mL
MIC [5, 26]: 500 µg/mL
MIC [5, 27]: 500 µg/mL
MIC [5, 28]: 500 µg/mL
MIC [5, 29]: 500 µg/mL
MIC [5, 30]: 500 µg/mL
MIC [5, 31]: 500 µg/mL
Structure (SMILES): OCCN1CCN(CCc2ccc(O)c3ncccc23)CC1 [Compound 4, 5-(2-(4-(2-hydroxyethyl)piperazin-1-yl)ethyl)-8-quinolinol]
reduction of bacteria (absorbance at 600 nm, 24 hours) [2, 32]: significant reduction in bacteria
reduction of bacteria (absorbance at 600 nm, 24 hours) [2, 33]: did not result in a reduction of bacteria
OD600 (growth curves) [3]: dramatically reduced
reduction of bacteria (absorbance at 600 nm, 24 hours) [6, 32]: significant reduction in bacteria
reduction of bacteria (absorbance at 600 nm, 24 hours) [6, 33]: no reduction of bacteria
